Measurements taken from US12633373B2, “Systems and methods to predict structures and properties of biomolecule-ligand complexes and uses thereof” (The Board of Trustees of the Leland Stanford Junior …, priority 2020, dated 2026).

Legend:
[1] = tested on: D2 dopamine receptor (D2R) Val91 and Trp100 mutants; experiment: Mutagenesis of Val91 and Trp100 of D2R, ligand affinity; details: mutation of Val91 and Trp100, top of the ligand binding pocket
Text: Mutations to several residues surrounding the top and bottom of the binding pocket were also considered. Unlike Glide, the embodiment predicts that all four ligands will position a fluorobenzene ring at the bottom of the binding pocket, packing favorably against Trp386 (W386). […] At the top of the ligand binding pocket, near Val91 and Trp100, the embodiment predicts that the pimozide and benperidol will place identical functional groups that differ somewhat from those of spiperone and mespiperone.

[2] = tested on: D2 dopamine receptor (D2R) S193 mutants (Val, Leu, Ala); experiment: Mutagenesis of Ser193 (S193) of D2R, ligand affinity; type: binding; details: S193 mutated to a larger residue (Val or Leu)
Text: (§1) To test the embodiment's predictions, mutagenesis experiments were designed.

[3] = target: D2 dopamine receptor (D2R) S193 mutants (Val, Leu, Ala) (Homo sapiens, UniProt P14416, S193A); experiment: as above; type: binding; details: S193 mutated to a smaller residue (Ala)
D2 dopamine receptor (D2R) S193 mutants (Val, Leu, Ala) (Homo sapiens, UniProt P14416, S193A), sequence (P14416 whole entry S193A): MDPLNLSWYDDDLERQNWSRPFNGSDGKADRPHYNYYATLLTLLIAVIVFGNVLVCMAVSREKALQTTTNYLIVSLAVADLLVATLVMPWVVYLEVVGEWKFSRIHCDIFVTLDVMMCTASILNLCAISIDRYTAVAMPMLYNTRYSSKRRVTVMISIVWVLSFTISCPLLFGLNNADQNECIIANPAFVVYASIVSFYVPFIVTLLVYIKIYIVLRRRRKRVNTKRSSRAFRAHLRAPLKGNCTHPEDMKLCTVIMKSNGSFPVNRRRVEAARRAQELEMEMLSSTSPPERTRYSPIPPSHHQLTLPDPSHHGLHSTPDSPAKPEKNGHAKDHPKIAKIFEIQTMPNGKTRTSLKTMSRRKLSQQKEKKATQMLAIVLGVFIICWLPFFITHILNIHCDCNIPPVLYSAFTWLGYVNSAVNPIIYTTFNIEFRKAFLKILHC
Text: as §1

O=C(CCCN1CCC(n2c(O)nc3ccccc32)CC1)c1ccc(F)cc1 [benperidol]
effect of mutation on ligand [1]: slightly differently from spiperone and mespiperone
change of affinity on mutation [2]: increases
change of affinity on mutation [3]: not observed
